Assay results taken from the supplement of paper PMC10307832.

How the values were obtained:
Assay in all cases: relative viability (nuclei count vs DMSO), 5 days (fraction); higher = more cells survive
[1] = compound: CC(C)C[C@H](NC(=O)[C@H](Cc1ccccc1)NC(=O)c1cnccn1)B(O)O [Bortezomib] + NC(=O)Nc1cc(-c2cccc(F)c2)sc1C(=O)N[C@H]1CCCNC1 [AZD7762] (partner 0.2 µM)
Procedure, shortened: (§1)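 Relative viability is defined as nuclei in treated wells over nuclei in vehicle wells. Duplicate plates were run and medians reported. Lung cancer cell lines in 1536-well plates were dosed by pin tool one day after seeding, with one drug or with a fixed anchor-drug dose plus five library-drug doses (not always all listed) in √10 steps, and nuclei were counted after 5 days.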

[2] = compound: CC1=CC(=NN1)NC2=CC(=NC(=N2)/C=C/C3=CC=CC=C3)N4CCN(CC4)C + CS(=O)(=O)N1CCN(Cc2cc3nc(-c4cccc5[nH]ncc45)nc(N4CCOCC4)c3s2)CC1 [Pictilisib] (partner 1 µM)
Procedure, shortened: as §1

[3] = compound: CC(C)C[C@H](NC(=O)[C@H](Cc1ccccc1)NC(=O)c1cnccn1)B(O)O [Bortezomib] + N=C(N)NC(=N)NCCc1ccccc1 [Phenformin] (partner 250 µM)
Procedure, shortened: as §1

[4] = compound: COC1=CC(c2cc3ccccc3[nH]2)=N/C1=C\c1[nH]c(C)cc1C [Obatoclax] + CS(=O)(=O)CCNCc1ccc(-c2ccc3ncnc(Nc4ccc(OCc5cccc(F)c5)c(Cl)c4)c3c2)o1 [Lapatinib] (partner 2 µM)
Procedure, shortened: as §1

Cell Line	relative viability ([1]; first compound 0.0002 µM)	relative viability ([1]; first compound 0.002 µM)	relative viability ([1]; first compound 0.006325 µM)	relative viability ([1]; first compound 0.02 µM)	relative viability ([2]; first compound 0.08 µM)	relative viability ([2]; first compound 0.253 µM)	relative viability ([2]; first compound 0.8 µM)	relative viability ([2]; first compound 2.53 µM)	relative viability ([2]; first compound 8 µM)	relative viability ([3]; first compound 0.0002 µM)	relative viability ([3]; first compound 0.000632 µM)	relative viability ([3]; first compound 0.002 µM)	relative viability ([3]; first compound 0.006325 µM)	relative viability ([3]; first compound 0.02 µM)	relative viability ([4]; first compound 0.01 µM)	relative viability ([4]; first compound 0.03162 µM)	relative viability ([4]; first compound 0.1 µM)	relative viability ([4]; first compound 0.3162 µM)	relative viability ([4]; first compound 1 µM)	relative viability ([1]; first compound 0.000632 µM)
NCI-H23	0.17	0.308	0.25	0.0879	0.462	0.48	0.382	0.296	0.134	0.79	0.652	0.785	0.277	0.114	1.13	1.23	0.805	0.619	0.458	
NCI-H322M	0.539	0.654	0.385	0.393	0.456	0.52	0.463	0.219	0.242	0.807		0.748	0.295	0.322	0.59	0.505	0.763	0.608	0.546	0.636
NCI-H358	0.615	0.619	0.241	0.225	0.296	0.29	0.293	0.138	0.108	0.316	0.305	0.354	0.0576	0.0696	0.482	0.33	0.598	0.336	0.208	0.285
NCI-H460	0.55	0.724	0.672	0.044	0.32	0.427	0.383	0.221	0.036	0.347	0.526	0.554	0.0373	0.0212	1	1.06	0.806	0.0507	0.0208	0.706
NCI-H596	0.983	1.15	0.634	0.205	0.406	0.417	0.388	0.253	0.271	0.737	0.474	0.828	0.267	0.211	0.941	0.951	0.827	0.643	0.503	1.22
NCI-H647	0.405	0.419	0.0227	0.0188	0.438	0.48	0.377	0.0644	0.051	0.479	0.444	0.267	0.0466	0.0232	1.02	0.982	0.48	0.189	0.144	0.447
NCI-H727	0.631	0.688	0.698	0.595	0.357	0.298	0.34	0.199	0.153	0.542	0.475	0.548	0.301	0.178	0.949	0.792	0.798	0.715	0.457	0.611
NCI-H838	0.878	0.9	0.682	0.622	0.463	0.488	0.471	0.193	0.105	0.6	0.526	0.64	0.127	0.115	1.07	1.17	0.465	0.62	0.377	0.925
